Assay results as given in US11034725B2, “Compositions and methods for treating cardiovascular disease” (Genentech, Inc., priority 2016, dated 2021).
Where two headings read alike, the source gives them in different places. Bridge positions count the residues as written; N and C are the ends. Square brackets hold non-standard residues; d marks the D form. Peptide text beside a SMILES is read from it. * marks the point of attachment. Trp(6-Cl) = N[C@@H](Cc1c[nH]c2cc(Cl)ccc12)C(=O)O; Trp(6-F) = N[C@@H](Cc1c[nH]c2cc(F)ccc12)C(=O)O; Trp(6-Me) = Cc1ccc2c(C[C@H](N)C(=O)O)c[nH]c2c1; hArg = N=C(N)NCCCC[C@H](N)C(=O)O; Pentanoyl = CCCCC(=O)*

Assays:
[1] = target: PCSK9 (Homo sapiens, UniProt Q8NBP7); test: PCSK9/EGF(A) TR-FRET binding assay; details: TR-FRET, read-out: PCSK9/EGF(A) IC50
Experimental: (§1) The former was based on a TF-FRET assay to measure the association of the EGF(A) domain of the LDLR to PCSK9 (“PCSK9/EGF(A) binding assay”) whilst the latter was based on a TR-FRET assay to measure binding of Ab20 to PCSK9Δhelix (“PCSK9Δhelix/Ab20 binding assay”).
(§2) The ability of compounds to inhibit binding to PCSK9 was evaluated with a panel of time-resolved fluorescence resonance energy transfer (TR-FRET) binding assays. […] The PCSK9Δhelix/Ab20 binding assay evaluated the ability of compounds to compete with Ab20 for binding to the N-terminal groove region in a His-tagged, PCSK9Δhelix construct. […] Signal generation in the PCSK9 binding assays was dependent upon the binding interaction to bring into close proximity the His-tag on the PCSK9 and the Fc-tag on the ligand. Anti-His-APC was bound to the His-tag, and anti-Fc-europium was bound to the Fc-tag. When these two antibodies were in close proximity and were irradiated with light at 340 nm, the europium was excited and emitted energy at 615 nm. This energy was taken up by the APC and was emitted as light at 665 nm. Compounds that competed with the ligand reduced the energy transfer and thus the emission at 665 nm. In the His-EGFA-Fc molecule in the counterscreen, the two tags were always in close proximity, thus any reduction in emission at 665 nm was due to interference with the detection system.
(§3) Compounds were solubilized and dilutions were prepared in DMSO. […] The plate was centrifuged to mix the well contents and allowed to incubate for 30 min. […] The TR-FRET signal was read on a ViewLux reader (PerkinElmer) with excitation at 340 nm and emission at 615 and 665 nm with a 50-μs time delay between excitation and measurement of emission. The TR-FRET ratio was calculated as the fluorescence emission at 665 nm divided by the fluorescence emission at 615 nm. The normalized TR-FRET ratios were plotted as a function of the compound concentrations, and the IC50 values were determined using a 4-parameter logistic regression.
(§4) In black 1536-well assay plates (MaKO, Aurora® Microplates, Whitefish, Mont.), 40 nL of peptide in DMSO were preincubated with 2 μL His-tagged PCSK9 plus anti-His-allophycocyanin in assay buffer (50 mM Tris-HCl, pH 7.5, 150 mM NaCl, 2 mM CaCl2, 0.01% Tween®-20, 0.1% bovine gamma globulins, and protease inhibitor cocktail) for 30 min. Then 2 μL of Fc-tagged ligand and anti-Fc-europium in assay buffer were added and allowed to incubate for 2 h.

[2] = target: T1, PCSK9Δhelix (Homo sapiens, UniProt Q8NBP7); test: PCSK9Δhelix/Ab20 TR-FRET binding assay; details: TR-FRET, read-out: PCSK9Δhelix/Ab20 IC50
T1 construct: Human PCSK9 construct M1-Q692 with an engineered TEV site (residue deletion Y166, R167); made in house; host or cells: CHO
Experimental: as §1, §2, §3, §4

[3] = test system: His-EGF(A)-Fc; test: His-EGF(A)-Fc TR-FRET counterscreen
[4] = TR-FRET counterscreen, Table 8E, additional compounds

PCSK9, sequence (Q8NBP7 153-692): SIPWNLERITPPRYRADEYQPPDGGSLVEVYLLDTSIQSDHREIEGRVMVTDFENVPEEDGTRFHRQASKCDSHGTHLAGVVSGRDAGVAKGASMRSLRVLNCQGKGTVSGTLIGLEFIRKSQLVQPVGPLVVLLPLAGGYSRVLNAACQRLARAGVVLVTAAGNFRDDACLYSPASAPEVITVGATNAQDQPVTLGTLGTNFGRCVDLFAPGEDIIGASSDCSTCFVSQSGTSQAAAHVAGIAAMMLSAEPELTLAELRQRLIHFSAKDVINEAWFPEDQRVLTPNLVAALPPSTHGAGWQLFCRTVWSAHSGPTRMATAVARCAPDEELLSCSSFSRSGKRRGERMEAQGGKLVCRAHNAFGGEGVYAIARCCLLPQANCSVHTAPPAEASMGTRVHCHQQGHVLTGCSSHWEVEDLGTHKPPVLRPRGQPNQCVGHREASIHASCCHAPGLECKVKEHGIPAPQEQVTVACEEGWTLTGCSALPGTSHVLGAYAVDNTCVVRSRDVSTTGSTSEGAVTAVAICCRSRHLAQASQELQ
PCSK9, sequence (Q8NBP7 31-152 partner limits assumed): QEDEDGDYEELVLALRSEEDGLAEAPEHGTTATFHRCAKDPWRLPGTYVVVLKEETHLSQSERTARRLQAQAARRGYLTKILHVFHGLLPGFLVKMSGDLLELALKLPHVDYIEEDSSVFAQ
T1 sequence (Q8NBP7 with tags, fused parts or gaps limits assumed): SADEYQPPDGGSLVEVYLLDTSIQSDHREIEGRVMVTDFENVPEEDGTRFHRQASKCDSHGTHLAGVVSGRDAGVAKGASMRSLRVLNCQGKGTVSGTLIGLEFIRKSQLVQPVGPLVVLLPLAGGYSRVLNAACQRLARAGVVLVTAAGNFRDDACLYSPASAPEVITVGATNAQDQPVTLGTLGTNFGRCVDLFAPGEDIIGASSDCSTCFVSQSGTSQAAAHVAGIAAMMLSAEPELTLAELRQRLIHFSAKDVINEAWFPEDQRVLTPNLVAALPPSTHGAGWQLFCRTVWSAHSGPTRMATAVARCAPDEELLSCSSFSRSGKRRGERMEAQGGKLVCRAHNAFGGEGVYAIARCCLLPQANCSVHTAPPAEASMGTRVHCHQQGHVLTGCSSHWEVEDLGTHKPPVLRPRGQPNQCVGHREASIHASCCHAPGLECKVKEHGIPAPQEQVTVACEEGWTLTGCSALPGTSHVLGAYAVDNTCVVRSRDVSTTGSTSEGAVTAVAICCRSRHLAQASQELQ
T1 sequence (Q8NBP7 31-152 partner limits assumed): as the sequence (Q8NBP7 31-152 partner limits assumed) above

| Compound | IC50 ([1]; Table 8E, additional compounds) [µM] | IC50 ([2]; Table 8E, additional compounds) [µM] | IC50 [3, 4] [µM] | IC50 ([1]; Example 7) [µM] | IC50 ([2]; Example 7) [µM] | IC50 ([3]; counterscreen, Example 7) [µM] |
| --- | --- | --- | --- | --- | --- | --- |
| CCCCC(=O)N[C@@H](Cc1c[nH]c2cc(F)ccc12)C(=O)N[C@@H](CC(N)=O)C(=O)N[C@@H](CC(C)C)C(=O)N[C@H](C(=O)N[C@@H](CCCNC(=N)N)C(=O)N[C@H](C(=O)NCC(=O)N[C@@H](CC(C)C)C(=O)N[C@H](C(=O)N[C@@H](CCCNC(=N)N)C(N)=O)[C@@H](C)O)[C@@H](C)CC)C(C)C [Compound 174] (Pentanoyl-[Trp(6-F)]NLVRIGLTR-NH2) | ≥ 50 | 6.2 | ≥ 50 |  |  |  |
| CCCCC(=O)N[C@@H](Cc1c[nH]c2cc(C)ccc12)C(=O)N[C@@H](CC(N)=O)C(=O)N[C@@H](CC(C)C)C(=O)N[C@H](C(=O)N[C@@H](CCCNC(=N)N)C(=O)N[C@H](C(=O)NCC(=O)N[C@@H](CC(C)C)C(=O)N[C@H](C(=O)N[C@@H](CCCNC(=N)N)C(N)=O)[C@@H](C)O)[C@@H](C)CC)C(C)C [Compound 175] (Pentanoyl-[Trp(6-Me)]NLVRIGLTR-NH2) | ≥ 50 | 39 | ≥ 50 |  |  |  |
| CCCCC(=O)N[C@@H](Cc1c[nH]c2ccccc12)C(=O)N[C@@H](CC(N)=O)C(=O)N[C@@H](CC(C)C)C(=O)N[C@H](C(=O)N[C@@H](CCCNC(=N)N)C(=O)N[C@H](C(=O)NCC(=O)N[C@@H](CC(C)C)C(=O)N[C@H](C(=O)N[C@@H](CCCNC(=N)N)C(=O)O)[C@@H](C)O)[C@@H](C)CC)C(C)C [Compound 176] (Pentanoyl-WNLVRIGLTR-OH) | ≥ 50 | 18 | ≥ 50 |  |  |  |
| CCCCC(=O)N[C@@H](Cc1c[nH]c2ccccc12)C(=O)N[C@@H](CC(N)=O)C(=O)N[C@@H](CC(C)C)C(=O)N[C@H](C(=O)N[C@@H](CCCNC(=N)N)C(=O)N[C@H](C(=O)NCC(=O)N[C@@H](CC(C)C)C(=O)N[C@@H](CC(=O)O)C(=O)N[C@@H](CCCNC(=N)N)C(N)=O)[C@@H](C)CC)C(C)C [Compound 178] (Pentanoyl-WNLVRIGLDR-NH2) | ≥ 50 | 18 | ≥ 50 |  |  |  |
| CCCCC(=O)N[C@@H](Cc1c[nH]c2ccccc12)C(=O)N[C@@H](CC(N)=O)C(=O)N[C@@H](CC(C)C)C(=O)N[C@H](C(=O)N[C@@H](CCCNC(=N)N)C(=O)N[C@H](C(=O)NCC(=O)N[C@@H](CC(C)C)C(=O)NCC(=O)N[C@@H](CCCNC(=N)N)C(N)=O)[C@@H](C)CC)C(C)C [Compound 179] (Pentanoyl-WNLVRIGLGR-NH2) | ≥ 50 | 11 | ≥ 50 |  |  |  |
| CCCCC(=O)N[C@@H](Cc1c[nH]c2ccccc12)C(=O)N[C@@H](CC(N)=O)C(=O)N[C@@H](CC(C)C)C(=O)N[C@H](C(=O)N[C@@H](CCCNC(=N)N)C(=O)N[C@H](C(=O)NCC(=O)N[C@@H](CC(C)C)C(=O)N[C@@H](C)C(=O)N[C@@H](CCCNC(=N)N)C(N)=O)[C@@H](C)CC)C(C)C [Compound 180] (Pentanoyl-WNLVRIGLAR-NH2) | ≥ 50 | 12 | ≥ 50 |  |  |  |
| CCCCC(=O)N[C@@H](Cc1c[nH]c2cc(Cl)ccc12)C(=O)N[C@@H](CC(N)=O)C(=O)N[C@@H](CC(C)C)C(=O)N[C@H](C(=O)N[C@@H](CCCNC(=N)N)C(=O)N[C@H](C(=O)NCC(=O)N[C@@H](CC(C)C)C(=O)N[C@H](C(=O)N[C@@H](CCCNC(=N)N)C(N)=O)[C@@H](C)O)[C@@H](C)CC)C(C)C [Compound 186] (Pentanoyl-[Trp(6-Cl)]NLVRIGLTR-NH2) | 31 | 11 | 46 |  |  |  |
| CCCCC(=O)N[C@@H](Cc1c[nH]c2ccccc12)C(=O)N[C@@H](CC(N)=O)C(=O)N[C@@H](CC(C)C)C(=O)N[C@H](C(=O)N[C@@H](CCCCNC(=N)N)C(=O)N[C@H](C(=O)NCC(=O)N[C@@H](CC(C)C)C(=O)N[C@@H](CC(C)C)C(=O)N[C@@H](CCCNC(=N)N)C(=O)O)[C@@H](C)CC)C(C)C [Compound 195, n-BuC(O)-WNLV(homoR)IGLLR] (Pentanoyl-WNLV[hArg]IGLLR-OH) | 22 | 1.7 | 45 |  |  |  |
| CC[C@H](C)[C@H](NC(=O)[C@H](CCCCNC(=N)N)NC(=O)[C@H](CCCCN)NC(=O)[C@H](CC(C)C)NC(=O)[C@H](CC(N)=O)NC(=O)[C@H](Cc1c[nH]c2ccccc12)NC(=O)CNC(=O)[C@@H]1CCCN1C(=O)[C@H](Cc1ccccc1)NC(=O)[C@H](C)NC(=O)[C@H](Cc1ccccc1)NC(=O)[C@H](CO)NC(C)=O)C(=O)NCC(=O)N[C@@H](CC(C)C)C(=O)N[C@@H](CC(C)C)C(=O)N[C@@H](CCCNC(=N)N)C(N)=O [Compound 232] (Ac-SFAFPGWNLK[hArg]IGLLR-NH2) | 0.93 | 13 | ≥ 50 |  |  |  |
| CCCCC(=O)N[C@@H](Cc1c[nH]c2ccccc12)C(=O)N[C@@H](CC(N)=O)C(=O)N[C@@H](CC(C)C)C(=O)N[C@H](C(=O)N[C@@H](CCCCNC(=N)N)C(=O)N[C@H](C(=O)NCC(=O)N[C@@H](CC(C)C)C(=O)N[C@H](C(=O)N[C@@H](CCCNC(=N)N)C(N)=O)[C@@H](C)O)[C@@H](C)CC)C(C)C [Compound 234, n-BuC(O)-WNLV(homoR)IGLTR-NH2] (Pentanoyl-WNLV[hArg]IGLTR-NH2) | ≥ 50 | 1.4 | ≥ 50 |  |  |  |
| CCCCC(=O)N[C@@H](Cc1c[nH]c2ccccc12)C(=O)N[C@@H](CC(N)=O)C(=O)N[C@@H](CC(C)C)C(=O)N[C@H](C(=O)N[C@@H](CCCCNC(=N)N)C(=O)N[C@H](C(=O)NCC(=O)N[C@@H](CC(C)C)C(=O)N[C@H](C(=O)N[C@@H](CCCNC(=N)N)C(=O)O)[C@@H](C)O)[C@@H](C)CC)C(C)C [Compound 235, n-BuC(O)-WNLV(homoR)IGLTR] (Pentanoyl-WNLV[hArg]IGLTR-OH) | ≥ 50 | 2.7 | ≥ 50 |  |  |  |
| CC[C@H](C)[C@H](NC(=O)[C@H](CCCCNC(=N)N)NC(=O)[C@@H](NC(=O)[C@H](CC(C)C)NC(=O)[C@H](CC(N)=O)NC(=O)[C@@H](N)Cc1c[nH]c2ccccc12)C(C)C)C(=O)NCC(N)=O [Compound 236, WNLV(homoR)IG-NH2] (H-WNLV[hArg]IG-NH2) | ≥ 50 | 22 | ≥ 50 |  |  |  |
| CC[C@H](C)[C@H](NC(=O)[C@H](CCCCNC(=N)N)NC(=O)[C@@H](NC(=O)[C@H](CC(C)C)NC(=O)[C@H](CC(N)=O)NC(=O)[C@@H](N)Cc1c[nH]c2ccccc12)C(C)C)C(=O)NCC(=O)N[C@@H](CC(C)C)C(=O)N[C@@H](CC(C)C)C(=O)N[C@@H](CCC(N)=O)C(N)=O [Compound 237, WNLV(homoR)IGLLQ-NH2] (H-WNLV[hArg]IGLLQ-NH2) | 8.8 | 0.33 | 46 |  |  |  |
| CC[C@H](C)[C@@H]1NC(=O)[C@H](CCCNC(=N)N)NC(=O)[C@H](CCC(N)=O)NC(=O)[C@H](CC(C)C)NC(=O)[C@H](CC(N)=O)NC(=O)[C@H](Cc2c[nH]c3ccccc23)NC(=O)[C@@H]2CCCN2C(=O)[C@H](CC(C)C)NC(=O)[C@H](CCCNC(=N)N)NC(=O)[C@@H](NC(=O)CNC(=O)[C@H](CO)NC(=O)CNC(=O)[C@@H](NC(=O)[C@H](Cc2c[nH]c3ccccc23)NC(=O)[C@H](CC(=O)O)NC(=O)[C@H](CC(C)C)NC(=O)[C@H](Cc2ccc(O)cc2)NC(=O)[C@H](CCC(=O)O)NC(=O)[C@H](CCC(=O)O)NC(=O)[C@H](Cc2c[nH]c3cc(F)ccc23)NC(=O)[C@H](CO)NC(=O)[C@@H](NC(=O)[C@H](Cc2ccccc2)NC(=O)[C@@H](NC(=O)[C@@H](NC(C)=O)[C@@H](C)O)C(C)C)[C@@H](C)O)C(C)C)CSSC[C@@H](C(N)=O)NC(=O)[C@@H]2CCCN2C(=O)[C@H](CC(C)C)NC(=O)CNC1=O [Compound 241] (Ac-TVFTS[Trp(6-F)]EEYLDWVGSGCRLPWNLQRIGLPC-NH2; disulfide 17-30 (inferred)) | 1.6 | 0.1 | ≥ 50 |  |  |  |
| Ac-DAMPWNLVRIGLLR-NH2 [Compound 44] |  |  |  | > 50 | 6.9 | > 50 |
| Ac-DLAPWNLVRIGLLR-NH2 [Compound 43] |  |  |  | > 50 | 8.19 | > 50 |

| Compound | IC50 ([1]; Table 8E, additional compounds) [µM] | IC50 ([2]; Table 8E, additional compounds) [µM] | IC50 [3, 4] [µM] | IC50 ([1]; Example 7) [µM] | IC50 ([2]; Example 7) [µM] | IC50 ([3]; counterscreen, Example 7) [µM] |
| --- | --- | --- | --- | --- | --- | --- |
| Ac-DLMAWNLVRIGLLR-NH2 [Compound 42] |  |  |  | > 50 | 28.5 | > 50 |
| Ac-DLMPANLVRIGLLR-NH2 [Compound 41] |  |  |  | > 50 | > 49.5 | > 50 |
| Ac-DLMPWALVRIGLLR-NH2 [Compound 62] |  |  |  | > 50 | > 49.5 | > 50 |
| Ac-DLMPWNAVRIGLLR-NH2 [Compound 61] |  |  |  | > 50 | > 49.5 | > 50 |
| Ac-DLMPWNLARIGLLR-NH2 [Compound 60] |  |  |  | > 50 | 19.2 | > 50 |
| Ac-DLMPWNLKRIGLLR-NH2 [Compound 158] | ≥ 50 | 12 | ≥ 50 |  |  |  |
| Ac-DLMPWNLVAIGLLR-NH2 [Compound 59] |  |  |  | > 50 | > 49.5 | > 50 |
| Ac-DLMPWNLVRAGLLR-NH2 [Compound 58] |  |  |  | > 50 | > 49.5 | > 50 |
| Ac-DLMPWNLVRI-NH2 [Compound 49] |  |  |  | > 50 | ≥ 49.5 | > 50 |
| Ac-DLMPWNLVRIALLR-NH2 [Compound 57] |  |  |  | > 50 | > 49.5 | > 50 |
| Ac-DLMPWNLVRIG-NH2 [Compound 48] |  |  |  | > 50 | ≥ 49.5 | > 50 |
| Ac-DLMPWNLVRIGALR-NH2 [Compound 56] |  |  |  | > 50 | 17.1 | > 50 |
| Ac-DLMPWNLVRIGL-NH2 [Compound 47] |  |  |  | > 50 | 12.6 | > 50 |
| Ac-DLMPWNLVRIGLL-NH2 [Compound 46] |  |  |  | > 50 | 14 | > 50 |
| Ac-DLMPWNLVRIGLLA-NH2 [Compound 54] |  |  |  | > 50 | 15.4 | > 50 |
| Ac-DLMPWNLVRIGLPR-NH2 [Compound 160] | ≥ 50 | 19 | ≥ 50 |  |  |  |
